{"source": "patent US9492508B2", "about": "“Parathyroid hormone analogs and uses thereof” (The General Hospital Corporation, priority 2010, dated 2016)", "key": {"rat PTHR1 (R0)": {"target": "T1, rat PTHR1 (R0) (Rattus norvegicus, UniProt P25961)", "T1 sequence (P25961 27-591)": "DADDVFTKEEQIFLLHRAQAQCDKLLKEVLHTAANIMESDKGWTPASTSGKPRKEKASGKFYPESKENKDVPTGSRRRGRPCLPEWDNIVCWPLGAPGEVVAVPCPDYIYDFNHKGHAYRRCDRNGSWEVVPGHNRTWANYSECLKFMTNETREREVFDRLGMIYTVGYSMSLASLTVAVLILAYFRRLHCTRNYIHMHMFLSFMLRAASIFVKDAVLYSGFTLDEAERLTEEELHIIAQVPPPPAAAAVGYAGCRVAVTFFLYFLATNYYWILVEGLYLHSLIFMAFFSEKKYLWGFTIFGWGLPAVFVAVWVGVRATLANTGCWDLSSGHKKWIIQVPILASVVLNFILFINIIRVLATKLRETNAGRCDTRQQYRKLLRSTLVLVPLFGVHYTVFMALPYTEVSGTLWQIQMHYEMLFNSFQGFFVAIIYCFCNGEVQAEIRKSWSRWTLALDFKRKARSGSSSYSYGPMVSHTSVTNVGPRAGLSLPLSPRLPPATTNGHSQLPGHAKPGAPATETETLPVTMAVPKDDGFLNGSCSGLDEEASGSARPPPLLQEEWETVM", "experiment": "Competition binding, R0 conformation of rat PTHR1", "settings": "R0 conformation; mean of 4 experiments; read-out: Binding rat PTHR1 IC50 (Log M) R0 (converted)", "description": "Briefly, the R^0 form of the receptor can be favored by addition of the non-hydrolyzable nucleotide analog GTPγS. The RG form can be favored, for example, by co-transfection of cells with a negative dominant Gαs subunit. […] Data are means of four experiments, each performed in duplicate. Curves were fit to the data using Graph-Pad Prism 4.0."}, "MC3T3-E1 cells": {"tested_on": "MC3T3-E1 cells", "experiment": "cAMP RIA in intact MC3T3-E1 cells", "format": "cell-based, mouse", "settings": "30 min, room temperature, IBMX", "protocol": "cAMP stimulating activity of these polypeptides was also assessed, using two different methods: a radioimmunoassay (RIA; FIG. 2) and a cAMP responsive element fused to a luciferase gene (FIG. 3). Briefly, the RIA cAMP assays were performed in intact MC3T3-E1 cells, a mouse pre-osteoblastic cell line, in 96-well plates, as described by Okazaki et al. (Proc Natl Acad Sci USA 105:16525-30, 2008). […] The cAMP contents of the HCl lysates were then determined by RIA. Data are means of six experiments, each performed in duplicate. Curves were fit to the data using Graph-Pad Prism 4.0."}, "[1]": {"experiment": "Repetitive daily dosing in TPTX rats (10 days)", "format": "in vivo, rat", "settings": "calcitriol 0.2 μg/kg oral daily 10 days", "protocol": "FIGS. 20A-20D are graphs showing effects of once-daily SP-PTH on serum and urine Ca in TPTX rats. TPTX and sham-control rats were treated once daily, for 10 days, via sc. injection with either vehicle (Sham and TPTX) or SP-PTH (SEQ ID NO:11) (1, 2. 4, or 8 nmol/kg), or with 1,25(OH)2D (0.075 or 0.2 μg/kg. orn). After the last injection on day 10, the rats were placed in metabolic cages, and jugular vein blood was obtained at 8 (FIG. 20A) and 24 hrs (FIG. 20B); urine was collected for the intervals 0-8 (FIG. 20C) and 8-24 hrs (FIG. 20D); means±s.e.m: n=5; ′˜, P vs vehicle <005.\nIn therapeutic use in humans, one would administer doses sufficient to only normalize blood Ca. A key experiment is to determine if it is indeed feasible to normalize sCa following a repetitive dosing regimen. We thus performed the experiment of FIGS. 20A-2D, in which TPTX rats were treated daily for 10 days with SP-PTH at doses of 1, 2, 4 and 8 nmol/kg (s.c). For comparison, 1,25(OH)2-vitamin-D (calcitriol) at doses of 0.075 and 0.2 mcg/kg (oral) were used for the same time periods."}}, "note": "Square brackets hold non-standard residues; d marks the D form. Peptide text beside a SMILES is read from it. hArg = N=C(N)NCCCC[C@H](N)C(=O)O; Aib = CC(C)(N)C(=O)O", "data": [{"smiles": "CC[C@H](C)[C@H](NC(=O)[C@H](CCC(=O)O)NC(=O)C(C)(C)NC(=O)[C@@H](NC(=O)[C@H](C)N)C(C)C)C(=O)N[C@@H](CCC(N)=O)C(=O)N[C@@H](CC(C)C)C(=O)N[C@@H](CCSC)C(=O)N[C@@H](Cc1c[nH]cn1)C(=O)N[C@@H](CCC(N)=O)C(=O)N[C@@H](CCCCNC(=N)N)C(=O)N[C@@H](C)C(=O)N[C@@H](CCCCN)C(=O)N[C@@H](Cc1c[nH]c2ccccc12)C(=O)N[C@@H](CC(C)C)C(=O)N[C@@H](CC(N)=O)C(=O)N[C@@H](CO)C(=O)N[C@@H](CCSC)C(=O)N[C@@H](CCCNC(=N)N)C(=O)N[C@@H](CCCNC(=N)N)C(=O)N[C@H](C(=O)N[C@@H](CCC(=O)O)C(=O)N[C@@H](Cc1c[nH]c2ccccc12)C(=O)N[C@@H](CC(C)C)C(=O)N[C@@H](CCCNC(=N)N)C(=O)N[C@@H](CCCCN)C(=O)N[C@@H](CCCCN)C(=O)N[C@@H](CC(C)C)C(=O)N[C@@H](CCC(N)=O)C(=O)N[C@@H](CC(=O)O)C(=O)N[C@H](C(=O)N[C@@H](Cc1c[nH]cn1)C(=O)N[C@@H](CC(N)=O)C(=O)N[C@@H](Cc1ccccc1)C(N)=O)C(C)C)C(C)C", "note": "[M-PTH(1-34), M-PTH(1-34).NH2, reference compound] (H-AV[Aib]EIQLMHQ[hArg]AKWLNSMRRVEWLRKKLQDVHNF-NH2; N-terminus assumed)", "values": [{"measurement": "IC50", "setting": "rat PTHR1 (R0)", "value": 1480, "unit": "pM"}, {"measurement": "EC50", "setting": "MC3T3-E1 cells", "value": 48, "unit": "pM"}, {"measurement": "cAMP MC3T3-E1 cells Emax (pmole/well)", "setting": "MC3T3-E1 cells", "value": "56.3 ± 13.4", "unit": "pmole/well"}, {"measurement": "cAMP MC3T3-E1 cells EC50 (Log M)", "setting": "MC3T3-E1 cells; 6 experiments", "value": "−10.3 ± 0.1", "unit": "Log M"}]}, {"smiles": "C=C1/C(=C\\C=C2/CCC[C@]3(C)[C@@H]([C@H](C)CCCC(C)(C)O)CC[C@@H]23)C[C@@H](O)C[C@@H]1O", "note": "[calcitriol, 1,25(OH)2-vitamin-D, reference compound]", "values": [{"measurement": "sCa achieved", "setting": "[1]", "value": "8 to 9", "unit": "mg/dL"}, {"measurement": "urine calcium", "setting": "[1]", "value": "elevated urine calcium"}]}]}
